Experimental data: ChEMBL document CHEMBL4346735, “Discovery and pharmacological evaluation of indole derivatives as potent and selective RORγt inverse agonist for multiple autoimmune conditions” (Bioorg Med Chem Lett, 2019)
pIC50: −log10 of the molar value.

target: T1, Nuclear receptor ROR-gamma (Homo sapiens, UniProt P51449); experiment: Transactivation of recombinant GAL4-DBD fused RORgammat LBD (unknown origin) expressed in HEK293T cells incubated for 18 to 24 hrs by dual-Glo luciferase assay; type: cell-based; details: not given
T1 sequence (P51449 whole entry): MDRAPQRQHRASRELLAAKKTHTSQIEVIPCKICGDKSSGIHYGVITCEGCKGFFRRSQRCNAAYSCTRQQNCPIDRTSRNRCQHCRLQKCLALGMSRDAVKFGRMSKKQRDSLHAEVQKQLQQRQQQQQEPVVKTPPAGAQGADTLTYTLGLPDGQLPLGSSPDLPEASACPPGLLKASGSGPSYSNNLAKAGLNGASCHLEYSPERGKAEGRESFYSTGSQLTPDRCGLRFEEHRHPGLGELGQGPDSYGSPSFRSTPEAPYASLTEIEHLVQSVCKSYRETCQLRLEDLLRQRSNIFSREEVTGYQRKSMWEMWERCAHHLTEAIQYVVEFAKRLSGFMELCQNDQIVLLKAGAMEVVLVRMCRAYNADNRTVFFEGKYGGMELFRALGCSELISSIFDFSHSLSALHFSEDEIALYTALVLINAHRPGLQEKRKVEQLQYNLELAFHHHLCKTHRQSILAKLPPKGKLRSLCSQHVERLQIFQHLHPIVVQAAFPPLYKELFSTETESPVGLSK

First: O=C(O)c1ccc(-n2cc(C(=O)c3c(Cl)cccc3Cl)c3cccnc32)c(F)c1
Second: O=C(O)c1ccc(-n2cc(C(=O)c3c(Cl)cccc3Cl)c3ccccc32)c(Cl)c1
The pIC50 of the first is 0.58 log units higher: 7.49 for the first, 6.91 for the second. The first is the more potent here.

First: O=C(O)c1ccc(-n2cc(C(=O)c3c(Cl)cc(Cl)cc3Cl)c3ccccc32)cc1
Second: O=C(O)c1ccc(-n2cc(C(=O)c3c(Cl)cccc3Cl)c3ccc(F)cc32)cc1
The pIC50 of the first is 0.27 log units higher: 6.97 for the first, 6.70 for the second. The first is the more potent here.

Going from Cc1c(C(=O)c2c(Cl)cccc2Cl)c2ccccc2n1-c1ccc(C(=O)O)cc1 to Cc1cc(-n2cc(C(=O)c3c(Cl)cccc3Cl)c3ccccc32)ccc1C(=O)O, the pIC50 rises from less than 5.30 to 5.70. The second is the more potent here.

First: Cc1cccc(Cl)c1C(=O)c1cn(-c2ccc(C(=O)O)cc2F)c2ccccc12
Second: Cc1cccc(Cl)c1C(=O)c1cn(-c2ccc(C(=O)O)cc2F)c2cccc(F)c12
The pIC50 of the first is 0.24 log units higher: 7.68 for the first, 7.44 for the second. The first is the more potent here.

Compared with O=C(O)c1ccc(-n2cc(C(=O)c3c(Cl)cccc3Cl)c3ccccc32)cc1F, O=C(O)c1ccc(-n2cc(C(=O)c3c(Cl)cccc3Cl)c3ccccc32)cc1C(F)(F)F is lower in pIC50: 6.54 for the first, less than 6.00 for the second.

First: O=C(O)c1ccc(-n2cc(C(=O)c3c(F)cccc3F)c3ccccc32)cc1
Second: Cc1cccc(Cl)c1C(=O)c1cn(-c2ccc(C(=O)O)cc2)c2c(F)cccc12
The pIC50 of the first is 1.61 log units lower: 6.35 for the first, 7.96 for the second.

First: COc1cccc2c(C(=O)c3c(Cl)cccc3Cl)cn(-c3ccc(C(=O)O)cc3)c12
Second: O=C(O)c1ccc(-n2cc(C(=O)c3c(Cl)cccc3Cl)c3cc(F)ccc32)cc1
The pIC50 of the first is 0.46 log units lower: 6.14 for the first, 6.60 for the second.

Compared with O=C(O)c1ccc(-n2cc(C(=O)c3c(Cl)cccc3C(F)(F)F)c3cccnc32)cc1, O=C(O)c1ccc(-n2cc(C(=O)c3c(Cl)cccc3Cl)c3ccccc32)c(F)c1F is 0.24 log units lower in pIC50: 7.36 for the first, 7.12 for the second. The first is the more potent here.

Molecule O=C(O)c1cc(Cl)c(-n2cc(C(=O)c3c(Cl)cccc3Cl)c3ccccc32)c(Cl)c1 has a pIC50 of 6.30.

target: Cytochrome P450 2D6 (Homo sapiens, UniProt P10635); experiment: Inhibition of CYP2D6 in human liver microsomes using dextromethorphan as substrate preincubated for 5 mins followed by NADPH addition measured after 10 mins by LC-MS/MS analysis; details: not given
Sequence (P10635 whole entry): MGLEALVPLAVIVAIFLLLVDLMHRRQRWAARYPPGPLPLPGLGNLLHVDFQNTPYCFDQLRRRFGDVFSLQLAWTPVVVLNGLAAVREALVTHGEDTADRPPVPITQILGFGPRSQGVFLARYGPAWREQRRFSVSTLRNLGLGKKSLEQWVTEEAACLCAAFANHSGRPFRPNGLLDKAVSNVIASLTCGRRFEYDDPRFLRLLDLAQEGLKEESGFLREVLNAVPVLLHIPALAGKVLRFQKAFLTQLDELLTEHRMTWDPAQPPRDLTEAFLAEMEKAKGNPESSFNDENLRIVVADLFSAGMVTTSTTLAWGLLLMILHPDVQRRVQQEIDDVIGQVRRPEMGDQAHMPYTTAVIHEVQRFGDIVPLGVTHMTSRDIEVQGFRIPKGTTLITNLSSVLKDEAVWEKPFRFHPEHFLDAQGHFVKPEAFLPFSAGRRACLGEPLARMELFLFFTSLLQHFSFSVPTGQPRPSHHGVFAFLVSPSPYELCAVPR

O=C(O)c1ccc(-n2cc(C(=O)c3c(Cl)cccc3Cl)c3cccnc32)c(F)c1 and Cc1cccc(Cl)c1C(=O)c1cn(-c2ccc(C(=O)O)cc2)c2c(F)cccc12 cannot be ordered by pIC50: less than 5.00 for the first, less than 4.30 for the second.

target: T1, Nuclear receptor ROR-gamma; experiment: Inverse agonist activity at GST-tagged RORgammat LBD (unknown origin) using fluorescein-D22 co-activator peptide as substrate incubated for 1 hr by TR-FRET assay; details: not given

Compared with Cc1c(C(=O)c2c(Cl)cccc2Cl)c2ccccc2n1-c1ccc(C(=O)O)cc1, COc1cccc2c(C(=O)c3c(Cl)cccc3Cl)cn(-c3ccc(C(=O)O)cc3)c12 is 0.35 log units lower in pIC50: 6.81 for the first, 6.46 for the second. The first is the more potent here.

test system: not listed separately; experiment: Metabolic stability in human liver microsomes assessed as parent compound remaining at 1 uM preincubated for 5 mins followed by NADPH addition after 30 mins by LC-MS/MS analysis; type: ADME, Microsome; details: read-out: Stability

Compared with O=C(O)c1ccc(-n2cc(C(=O)c3c(Cl)cccc3Cl)c3cccnc32)c(F)c1, O=C(O)c1ccc(-n2cc(C(=O)c3c(Cl)cccc3Cl)c3ccccc32)c(Cl)c1 is lower in remaining at 0.5 h, 1 µM: 100% for the first, 76% for the second.

Going from Cc1cccc(Cl)c1C(=O)c1cn(-c2ccc(C(=O)O)cc2F)c2ccccc12 to Cc1cccc(Cl)c1C(=O)c1cn(-c2ccc(C(=O)O)cc2F)c2cccc(F)c12, the remaining at 0.5 h, 1 µM rises from 59% to 75%.

Going from O=C(O)c1ccc(-n2cc(C(=O)c3c(Cl)cccc3Cl)c3ccc(F)cc32)cc1 to O=C(O)c1ccc(-n2cc(C(=O)c3c(Cl)cccc3Cl)c3cc(F)ccc32)cc1, the remaining at 0.5 h, 1 µM falls from 91% to 87%.

Compared with O=C(O)c1ccc(-n2cc(C(=O)c3c(F)cccc3F)c3ccccc32)cc1, Cc1cccc(Cl)c1C(=O)c1cn(-c2ccc(C(=O)O)cc2)c2c(F)cccc12 is lower in remaining at 0.5 h, 1 µM: 92% for the first, 66% for the second.

Compared with O=C(O)c1ccc(-n2cc(C(=O)c3c(Cl)cccc3Cl)c3ccccc32)cc1C(F)(F)F, O=C(O)c1ccc(-n2cc(C(=O)c3c(Cl)cccc3C(F)(F)F)c3cccnc32)cc1 is higher in remaining at 0.5 h, 1 µM: 71% for the first, 83% for the second.

test system: not listed separately; experiment: Solubility of the compound at pH 7.4; details: buffer

For O=C(O)c1ccc(-n2cc(C(=O)c3c(Cl)cccc3Cl)c3cccnc32)c(F)c1, the solubility was greater than 2000 µM.

test system: not listed separately; experiment: Solubility of the compound at pH 4; details: buffer

O=C(O)c1ccc(-n2cc(C(=O)c3c(Cl)cccc3Cl)c3cccnc32)c(F)c1 gave a solubility of less than 1 µM.

test system: not listed separately; experiment: Metabolic stability in mouse liver microsomes assessed as parent compound remaining at 1 uM preincubated for 5 mins followed by NADPH addition after 30 mins by LC-MS/MS analysis; type: ADME, Microsome; details: read-out: Stability

Going from O=C(O)c1ccc(-n2cc(C(=O)c3c(Cl)cccc3Cl)c3cccnc32)c(F)c1 to O=C(O)c1ccc(-n2cc(C(=O)c3c(Cl)cccc3Cl)c3ccccc32)c(Cl)c1, the remaining at 0.5 h, 1 µM falls from 92% to 64%.

Compared with O=C(O)c1ccc(-n2cc(C(=O)c3c(Cl)cc(Cl)cc3Cl)c3ccccc32)cc1, O=C(O)c1ccc(-n2cc(C(=O)c3c(Cl)cccc3Cl)c3ccc(F)cc32)cc1 is lower in remaining at 0.5 h, 1 µM: 90% for the first, 80% for the second.

Compared with Cc1c(C(=O)c2c(Cl)cccc2Cl)c2ccccc2n1-c1ccc(C(=O)O)cc1, COc1cccc2c(C(=O)c3c(Cl)cccc3Cl)cn(-c3ccc(C(=O)O)cc3)c12 is lower in remaining at 0.5 h, 1 µM: 92% for the first, 83% for the second.

First: Cc1cccc(Cl)c1C(=O)c1cn(-c2ccc(C(=O)O)cc2F)c2ccccc12
Second: Cc1cccc(Cl)c1C(=O)c1cn(-c2ccc(C(=O)O)cc2F)c2cccc(F)c12
The remaining at 0.5 h, 1 µM of the first is higher: 84% for the first, 68% for the second.

Compared with O=C(O)c1ccc(-n2cc(C(=O)c3c(Cl)cccc3Cl)c3ccccc32)cc1F, O=C(O)c1ccc(-n2cc(C(=O)c3c(Cl)cccc3Cl)c3ccccc32)cc1C(F)(F)F is lower in remaining at 0.5 h, 1 µM: 92% for the first, 61% for the second.

Compared with O=C(O)c1ccc(-n2cc(C(=O)c3c(F)cccc3F)c3ccccc32)cc1, Cc1cccc(Cl)c1C(=O)c1cn(-c2ccc(C(=O)O)cc2)c2c(F)cccc12 is lower in remaining at 0.5 h, 1 µM: 94% for the first, 80% for the second.

First: O=C(O)c1ccc(-n2cc(C(=O)c3c(Cl)cccc3Cl)c3cc(F)ccc32)cc1
Second: O=C(O)c1ccc(-n2cc(C(=O)c3c(Cl)cccc3Cl)c3ccccc32)c(F)c1F
The remaining at 0.5 h, 1 µM of the first is lower: 82% for the first, 100% for the second.

Molecule O=C(O)c1ccc(-n2cc(C(=O)c3c(Cl)cccc3C(F)(F)F)c3cccnc32)cc1 has a remaining at 0.5 h, 1 µM of 84%.

target: T2, Cytochrome P450 1A2 (Homo sapiens, UniProt P05177); experiment: Inhibition of CYP1A2 in human liver microsomes using phenacetin as substrate preincubated for 5 mins followed by NADPH addition measured after 10 mins by LC-MS/MS analysis; details: not given
T2 sequence (P05177 whole entry): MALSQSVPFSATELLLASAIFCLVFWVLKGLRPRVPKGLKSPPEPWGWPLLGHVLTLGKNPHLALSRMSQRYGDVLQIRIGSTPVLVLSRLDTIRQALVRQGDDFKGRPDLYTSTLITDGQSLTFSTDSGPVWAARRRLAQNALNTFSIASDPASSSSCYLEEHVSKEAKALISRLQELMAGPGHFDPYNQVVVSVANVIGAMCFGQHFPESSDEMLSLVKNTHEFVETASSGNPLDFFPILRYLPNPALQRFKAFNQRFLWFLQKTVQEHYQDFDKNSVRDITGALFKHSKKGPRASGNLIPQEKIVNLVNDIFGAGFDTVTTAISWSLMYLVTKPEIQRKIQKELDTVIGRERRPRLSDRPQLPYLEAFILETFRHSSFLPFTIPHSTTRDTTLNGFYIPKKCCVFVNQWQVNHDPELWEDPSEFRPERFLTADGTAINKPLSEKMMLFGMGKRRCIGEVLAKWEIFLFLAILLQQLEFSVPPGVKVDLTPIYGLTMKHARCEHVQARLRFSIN

For O=C(O)c1ccc(-n2cc(C(=O)c3c(Cl)cccc3Cl)c3cccnc32)c(F)c1, the pIC50 was less than 4.30.

target: Cytochrome P450 2C9 (Homo sapiens, UniProt P11712); experiment: Inhibition of CYP2C9 in human liver microsomes using diclofenac as substrate preincubated for 5 mins followed by NADPH addition measured after 10 mins by LC-MS/MS analysis; details: not given
Sequence (P11712 whole entry): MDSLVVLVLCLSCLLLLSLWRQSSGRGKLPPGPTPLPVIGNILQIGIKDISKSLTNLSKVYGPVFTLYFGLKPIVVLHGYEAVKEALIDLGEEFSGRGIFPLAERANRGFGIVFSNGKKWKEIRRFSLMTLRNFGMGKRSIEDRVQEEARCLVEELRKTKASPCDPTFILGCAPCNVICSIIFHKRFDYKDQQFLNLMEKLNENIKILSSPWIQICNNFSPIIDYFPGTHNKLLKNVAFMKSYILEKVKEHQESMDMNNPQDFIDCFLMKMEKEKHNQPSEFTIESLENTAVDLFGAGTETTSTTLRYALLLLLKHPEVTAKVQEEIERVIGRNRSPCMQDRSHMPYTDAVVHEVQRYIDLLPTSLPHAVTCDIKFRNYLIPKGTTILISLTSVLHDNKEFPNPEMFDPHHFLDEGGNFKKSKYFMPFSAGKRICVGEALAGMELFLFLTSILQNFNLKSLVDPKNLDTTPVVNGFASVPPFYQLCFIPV

Going from O=C(O)c1ccc(-n2cc(C(=O)c3c(Cl)cccc3Cl)c3cccnc32)c(F)c1 to Cc1cccc(Cl)c1C(=O)c1cn(-c2ccc(C(=O)O)cc2)c2c(F)cccc12, the pIC50 falls from 4.80 to 4.50 (0.30 log units). The first is the more potent here.

test system: not listed separately; experiment: Metabolic stability in rat liver microsomes assessed as parent compound remaining at 1 uM preincubated for 5 mins followed by NADPH addition after 30 mins by LC-MS/MS analysis; type: ADME, Microsome; details: read-out: Stability

Compared with O=C(O)c1ccc(-n2cc(C(=O)c3c(Cl)cccc3Cl)c3cccnc32)c(F)c1, O=C(O)c1ccc(-n2cc(C(=O)c3c(Cl)cccc3Cl)c3ccccc32)c(Cl)c1 is lower in remaining at 0.5 h, 1 µM: 90% for the first, 48% for the second.

Compared with Cc1cccc(Cl)c1C(=O)c1cn(-c2ccc(C(=O)O)cc2F)c2ccccc12, Cc1cccc(Cl)c1C(=O)c1cn(-c2ccc(C(=O)O)cc2F)c2cccc(F)c12 is lower in remaining at 0.5 h, 1 µM: 46% for the first, 43% for the second.

First: O=C(O)c1ccc(-n2cc(C(=O)c3c(Cl)cccc3Cl)c3ccc(F)cc32)cc1
Second: O=C(O)c1ccc(-n2cc(C(=O)c3c(Cl)cccc3Cl)c3cc(F)ccc32)cc1
The remaining at 0.5 h, 1 µM of the first is lower: 61% for the first, 76% for the second.

Going from O=C(O)c1ccc(-n2cc(C(=O)c3c(F)cccc3F)c3ccccc32)cc1 to Cc1cccc(Cl)c1C(=O)c1cn(-c2ccc(C(=O)O)cc2)c2c(F)cccc12, the remaining at 0.5 h, 1 µM falls from 88% to 70%.

Going from O=C(O)c1ccc(-n2cc(C(=O)c3c(Cl)cccc3Cl)c3ccccc32)cc1C(F)(F)F to O=C(O)c1ccc(-n2cc(C(=O)c3c(Cl)cccc3C(F)(F)F)c3cccnc32)cc1, the remaining at 0.5 h, 1 µM falls from 61% to 55%.

test system: not listed separately; experiment: Solubility of the compound at pH 2.1; details: buffer

O=C(O)c1ccc(-n2cc(C(=O)c3c(Cl)cccc3Cl)c3cccnc32)c(F)c1 showed a solubility of less than 1 µM.

target: Cytochrome P450 3A4 (Homo sapiens, UniProt P08684); experiment: Inhibition of CYP3A4 in human liver microsomes using testosterone as substrate preincubated for 5 mins followed by NADPH addition measured after 10 mins by LC-MS/MS analysis; details: not given
Sequence (P08684 whole entry): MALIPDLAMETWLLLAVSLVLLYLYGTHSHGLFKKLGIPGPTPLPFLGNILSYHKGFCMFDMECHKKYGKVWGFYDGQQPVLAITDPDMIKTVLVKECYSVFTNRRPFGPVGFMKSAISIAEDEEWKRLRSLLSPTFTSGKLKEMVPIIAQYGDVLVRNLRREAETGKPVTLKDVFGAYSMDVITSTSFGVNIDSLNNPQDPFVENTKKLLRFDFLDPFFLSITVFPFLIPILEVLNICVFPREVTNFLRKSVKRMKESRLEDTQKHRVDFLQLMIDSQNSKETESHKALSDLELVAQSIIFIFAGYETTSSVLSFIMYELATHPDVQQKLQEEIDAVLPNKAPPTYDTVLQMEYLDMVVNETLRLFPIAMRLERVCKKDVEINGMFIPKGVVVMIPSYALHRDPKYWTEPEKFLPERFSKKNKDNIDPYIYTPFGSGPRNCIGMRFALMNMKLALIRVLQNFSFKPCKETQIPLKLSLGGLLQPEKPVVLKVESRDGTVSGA

Going from O=C(O)c1ccc(-n2cc(C(=O)c3c(Cl)cccc3Cl)c3cccnc32)c(F)c1 to Cc1cccc(Cl)c1C(=O)c1cn(-c2ccc(C(=O)O)cc2)c2c(F)cccc12, the pIC50 rises from less than 4.30 to 4.57. The second is the more potent here.

target: Cytochrome P450 2C19 (Homo sapiens, UniProt P33261); experiment: Inhibition of CYP2C19 in human liver microsomes using (S)-mephenytoin as substrate preincubated for 5 mins followed by NADPH addition measured after 40 mins by LC-MS/MS analysis; details: not given
Sequence (P33261 whole entry): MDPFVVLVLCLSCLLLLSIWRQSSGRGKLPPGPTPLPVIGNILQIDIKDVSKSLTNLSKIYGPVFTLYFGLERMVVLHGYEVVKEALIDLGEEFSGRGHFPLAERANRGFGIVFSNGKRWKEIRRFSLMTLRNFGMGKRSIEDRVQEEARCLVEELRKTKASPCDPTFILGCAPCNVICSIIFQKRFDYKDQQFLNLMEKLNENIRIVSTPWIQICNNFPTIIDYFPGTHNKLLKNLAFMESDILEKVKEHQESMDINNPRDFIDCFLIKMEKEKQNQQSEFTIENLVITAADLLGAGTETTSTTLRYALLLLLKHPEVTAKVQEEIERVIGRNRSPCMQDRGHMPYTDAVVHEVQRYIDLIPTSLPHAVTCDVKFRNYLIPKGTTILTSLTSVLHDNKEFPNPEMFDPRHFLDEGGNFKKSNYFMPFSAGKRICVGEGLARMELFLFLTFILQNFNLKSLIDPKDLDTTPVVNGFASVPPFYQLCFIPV

O=C(O)c1ccc(-n2cc(C(=O)c3c(Cl)cccc3Cl)c3cccnc32)c(F)c1 and Cc1cccc(Cl)c1C(=O)c1cn(-c2ccc(C(=O)O)cc2)c2c(F)cccc12 cannot be ordered by pIC50: less than 4.30 for the first, less than 4.30 for the second.
